Test results taken from paper PMC9877305, “Cytotoxic hexadepsipeptides and anti-coronaviral 4-hydroxy-2-pyridones from an endophytic Fusarium sp” (Frontiers in Chemistry, 2023).
Converted amounts (≈) assume the structure as drawn.

Key:
[1] = test system: human pancreatic cancer cell line (ASPC-1); assay: Cytotoxic activity by CCK-8 method; type: cell-based
Procedure: The cytotoxic effects of all compounds against human pancreatic cancer cell line (ASPC-1) were evaluated by CCK-8 method.

H460 cells = assay: Half toxic concentration in the antiviral assay host cells; type: cell-based
Procedure: (§1) Briefly, the H460 cells were inoculated into 96 well culture plates and cultured at 35°C under 5% CO2 condition, and infected by HCoV-OC43 virus with 100 times 50% tissue culture infective dose (TCID50) 24 h later; then the positive control drugs and test compounds were added. The half inhibitory concentration (IC50) and the half toxic concentration (TC50) were determined by the Reed and Muench method. The selectivity index (SI) was calculated as the ratio of TC50/IC50.

coronavirus (HCoV-OC43) = assay: microbe, parasite or virus in culture; type: cell-based; conditions: for SI (TC50/IC50): HCoV-OC43 in H460 cells
Procedure: as §1

[2] = test system: pancreatic cancer cell line PANC-1; parameters: method as in Wang et al., 2019; conditions: PANC-1 cells; ref Wang et al., 2019; cited from earlier work
[3] = Homo sapiens, ASPC1, AsPC-1 cells
[4] = Betacoronavirus 1, OC43, NCI-H460, HCoV-OC43 (100 TCID50) in H460 cells

| Compound | IC50 [1, 3] [µM] | TC50 (H460 cells) [µg/mL] | IC50 (coronavirus (HCoV-OC43); [4]) [µg/mL] | further results |
| --- | --- | --- | --- | --- |
| CC(C)C1OC(=O)C(Cc2ccccc2)NC(=O)C(C(C)C)OC(=O)C(Cc2ccccc2)N(C)C(=O)C(C(C)C)OC(=O)C(Cc2ccccc2)NC1=O (centres unmarked) [Compound 2, Beauvericin M] | > 90 | – | – | melting point: 85 to 86 °C |
| CC[C@H](C)C[C@@H](C)/C=C(\C)[C@@H]1O[C@H](c2c(O)c(-c3ccc(O)cc3)cn(C)c2=O)CC[C@H]1C [Compound 6, (–)-sambutoxin] | > 90 | <0.02 | – | – |
| Nc1ccn([C@@H]2O[C@H](CO)[C@@H](O)C2(F)F)c(=O)n1 [Gemcitabine, gemcitabine, reference compound] | 1.53 | – | – | – |
| CC(C)C(O)C(=O)N(C)C(Cc1ccccc1)C(=O)OC(C(=O)N(C)C(Cc1ccccc1)C(=O)OC(C(=O)N(C)C(Cc1ccccc1)C(=O)O)C(C)C)C(C)C (centres unmarked) [Compound 1, Secobeauvericin A] | > 90 | – | – | – |
| CC[C@H](C)C[C@@H](C)/C=C(\C)[C@@H]1O[C@H](c2c3c(cn(C)c2=O)[C@@]2(O)CCC(=O)C[C@@H]2O3)CC[C@H]1C [Compound 8, fusapyridon A] | 29.7 | 11.55 (≈ 24.5 µM) | 6.67 (≈ 14.1 µM) | IC50 (coronavirus (HCoV-OC43); Betacoronavirus 1, OC43, NCI-H460, HCoV-OC43, unit as printed in running text): 6.65 µg/mL (≈ 14.1 µM); SI (TC50/IC50) (coronavirus (HCoV-OC43)): 1.7 |
| CC1OC(=O)C(Cc2ccccc2)N(C)C(=O)C(C(C)C)OC(=O)C(Cc2ccccc2)N(C)C(=O)C(C(C)C)OC(=O)C(Cc2ccccc2)N(C)C1=O (centres unmarked) [Compound 3, Beauvericin N] | > 90 | – | – | melting point: 82 to 83 °C |
| CC(C)C1OC(=O)C(Cc2ccccc2)N(C)C(=O)C(C(C)C)OC(=O)C(Cc2ccccc2)N(C)C(=O)C(C(C)C)OC(=O)C(Cc2ccccc2)NC1=O (centres unmarked) [Compound 5, beauvericin D] | > 90 | – | – | – |
| CC[C@H](C)C[C@@H](C)/C=C(\C)[C@@H]1O[C@H](c2c(O)c([C@@]3(O)CCC(=O)C[C@@H]3O)cn(C)c2=O)CC[C@H]1C [Compound 7, (–)-oxysporidinone] | 17.6 | 23.09 (≈ 47.2 µM) | 13.3 (≈ 27.2 µM) | SI (TC50/IC50) (coronavirus (HCoV-OC43)): 1.7 |
| CC(C)=CCc1c(O)cc(O)c(C=O)c1C(=O)c1c(O)cc(C)c(Cl)c1O [E] | – | – | – | IC50 [2]: 7.2 µM |
| CC[C@H](C)C[C@@H](C)/C=C(\C)[C@@H]1O[C@H](c2c3c(cn(C)c2=O)[C@@]2(OC)CCC(=O)C[C@@H]2O3)CC[C@H]1C [Compound 9, (–)-fusoxypyridone] | 18.8 | 11.55 (≈ 23.8 µM) | > 6.67 | – |
| NC(=O)c1ncn([C@@H]2O[C@H](CO)[C@@H](O)[C@H]2O)n1 [Ribavirin, ribavirin, reference compound] | – | 100 (≈ 409 µM) | 19.2 (≈ 78.8 µM) | SI (TC50/IC50) (coronavirus (HCoV-OC43)): 5.2 |
| beauvericin [Compound 4] | – | – | – | IC50 ([1]; AsPC-1 cells): 3.45 µM |
